Results published in ChEMBL document CHEMBL1201862, “PubChem BioAssay data set” (2004).
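Values below derive from 48-hour exposures of cells grown in 96-well plates, with endpoints linearly interpolated between the two concentrations bracketing the appropriate inhibition level. Abbreviation: GI50, concentration required for 50% inhibition of growth.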 Calls of active or inactive are those of the source. Rule as the data show it: active = GI50 up to about 1.1 µM and inactive = higher.

How the values were obtained:
Assay in all cases: DTP human tumour cell line panel, 48 h
[1] = tested on: PC-3
[2] = tested on: ACHN
[3] = tested on: CAKI-1
[4] = tested on: DU-145
[5] = tested on: SNB-19
[6] = tested on: SNB-75
[7] = tested on: MDA-MB-435
[8] = tested on: SK-OV-3
[9] = tested on: SK-MEL-28
[10] = tested on: UACC-62
[11] = tested on: NCI-H23
[12] = tested on: BT-549
[13] = tested on: MDA-N
[14] = tested on: SF-268
[15] = tested on: NCI/ADR-RES
[16] = tested on: UO-31
[17] = tested on: OVCAR-4
[18] = tested on: OVCAR-8
[19] = tested on: K562
[20] = tested on: TK-10
[21] = tested on: Malme-3M
[22] = tested on: MDA-MB-231
[23] = tested on: SK-MEL-2
[24] = tested on: A498
[25] = tested on: RXF 393
[26] = tested on: SN12C
[27] = tested on: MCF7
[28] = tested on: HOP-62
[29] = tested on: M14
[30] = tested on: HL-60
[31] = tested on: SF-295
[32] = tested on: Hs-578T
[33] = tested on: OVCAR-5
[34] = tested on: HCC 2998
[35] = tested on: SK-MEL-5
[36] = tested on: SW-620
[37] = tested on: NCI-H460
[38] = tested on: SF-539
[39] = tested on: IGROV-1
[40] = tested on: HT-29
[41] = tested on: LOX IMVI
[42] = tested on: A549
[43] = tested on: HCT-15
[44] = tested on: KM12
[45] = tested on: NCI-H226
[46] = tested on: T47D
[47] = tested on: EKVX
[48] = tested on: NCI-H522
[49] = tested on: RPMI-8226
[50] = tested on: OVCAR-3
[51] = tested on: HOP-92
[52] = tested on: COLO 205
[53] = tested on: HCT-116
[54] = tested on: UACC-257
[55] = tested on: CCRF-CEM
[56] = tested on: U-251
[57] = tested on: MOLT-4
[58] = tested on: SR
[59] = tested on: 786-0

CC1=NN(C(=O)CC(=O)Nc2cccc(C)c2)C(=O)C1/N=N\c1ccc(S(=O)(=O)c2ccc(/N=N/C3C(=O)N(C(=O)CC(=O)Nc4cccc(C)c4)N=C3C)cc2)cc1 (centres undefined) was tested, and the GI50 [1] was > 100 µM (inactive), the GI50 [2] was > 100 µM (inactive) and the GI50 [3] was > 100 µM (inactive). The GI50 [4] was > 100 µM (inactive), the GI50 [5] was > 100 µM (inactive) and the GI50 [6] was > 100 µM (inactive). For the same compound, the GI50 [7] was > 100 µM (inactive), the GI50 [8] was > 100 µM (inactive) and the GI50 [9] was > 100 µM (inactive). The GI50 [10] was > 100 µM (inactive), the GI50 [11] was > 100 µM (inactive) and the GI50 [12] was > 100 µM (inactive). The GI50 [13] was > 100 µM (inactive), the GI50 [14] was > 100 µM (inactive) and the GI50 [15] was > 100 µM (inactive). For the same compound, the GI50 [16] was > 100 µM (inactive), the GI50 [17] was > 100 µM (inactive) and the GI50 [18] was > 100 µM (inactive). The GI50 [19] was > 100 µM (inactive), the GI50 [20] was > 100 µM (inactive) and the GI50 [21] was 85.5 µM (inactive). The GI50 [22] was > 100 µM (inactive), the GI50 [23] was > 100 µM (inactive) and the GI50 [24] was > 100 µM (inactive). For the same compound, the GI50 [25] was > 100 µM (inactive), the GI50 [26] was > 100 µM (inactive) and the GI50 [27] was > 100 µM (inactive). The GI50 [28] was > 100 µM (inactive), the GI50 [29] was > 100 µM (inactive) and the GI50 [30] was > 100 µM (inactive). The GI50 [31] was > 100 µM (inactive), the GI50 [32] was > 100 µM (inactive) and the GI50 [33] was > 100 µM (inactive). For the same compound, the GI50 [34] was > 100 µM (inactive), the GI50 [35] was > 100 µM (inactive) and the GI50 [36] was > 100 µM (inactive). For the same compound, the GI50 [37] was > 100 µM (inactive), the GI50 [38] was > 100 µM (inactive) and the GI50 [39] was > 100 µM (inactive). The GI50 [40] was > 100 µM (inactive), the GI50 [41] was > 100 µM (inactive) and the GI50 [42] was > 100 µM (inactive). For the same compound, the GI50 [43] was > 100 µM, the GI50 [44] was > 100 µM (inactive) and the GI50 [45] was > 100 µM (inactive). For the same compound, the GI50 [46] was > 100 µM (inactive), the GI50 [47] was > 100 µM (inactive) and the GI50 [48] was > 100 µM (inactive). The GI50 [49] was > 100 µM (inactive), the GI50 [50] was > 100 µM (inactive) and the GI50 [51] was > 100 µM (inactive). The GI50 [52] was > 100 µM (inactive), the GI50 [53] was > 100 µM (inactive) and the GI50 [54] was > 100 µM (inactive). For the same compound, the GI50 [55] was > 100 µM (inactive), the GI50 [56] was > 100 µM (inactive) and the GI50 [57] was > 100 µM (inactive). The GI50 [58] was > 100 µM (inactive) and the GI50 [59] was > 100 µM (inactive).
